Results taken from PMC5701173, “An activity-dependent proximity ligation platform for spatially resolved quantification of active enzymes in single cells” (Nature Communications, 2017).

Molecular target: T1, Neutral cholesterol ester hydrolase 1 (NCEH1) (Homo sapiens, UniProt Q6PIU2)
T1 construct: endogenous full-length enzyme in live PC3 cells
T1 sequence (Q6PIU2 1-408): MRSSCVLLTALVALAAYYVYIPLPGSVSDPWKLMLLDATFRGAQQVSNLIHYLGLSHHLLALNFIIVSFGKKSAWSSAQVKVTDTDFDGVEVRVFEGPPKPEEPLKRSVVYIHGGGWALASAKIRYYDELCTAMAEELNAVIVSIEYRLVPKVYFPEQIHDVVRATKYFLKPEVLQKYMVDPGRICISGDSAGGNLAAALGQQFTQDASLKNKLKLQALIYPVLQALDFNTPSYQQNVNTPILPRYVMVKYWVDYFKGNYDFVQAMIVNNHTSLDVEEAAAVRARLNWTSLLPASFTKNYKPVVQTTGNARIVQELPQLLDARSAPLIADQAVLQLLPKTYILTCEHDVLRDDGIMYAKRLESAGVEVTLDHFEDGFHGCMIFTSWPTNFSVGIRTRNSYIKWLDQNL
Experiment: competitive activity-dependent proximity ligation (FP-Bio probe) in live cells; gel-based ABPP in SKOV3
Assay type: cell-based

IC50: 6 nM
Structure (SMILES): CC(C)c1ccccc1OC(=O)NCCc1ccc2ccccc2c1 [JW480]
